In paper PMC3516806 (Scientific Reports, 2012):

Target: BoGT6a (Bacteroides ovatus, UniProt A0ABU3IMV7)
Experiment: ITC, […]°C, HEPES pH […], no metal
Assay type: binding

- Kd: 59 µM
Structure (SMILES): CC(=O)N[C@H]1[C@@H](OP(=O)(O)OP(=O)(O)OC[C@H]2O[C@@H](n3ccc(=O)[nH]c3=O)[C@H](O)[C@@H]2O)O[C@H](CO)[C@H](O)[C@@H]1O [UDP-GalNAc]
